{"source": "paper PMC10696402", "about": "(The Journal of Biological Chemistry, 2023)", "key": {"CYP3A [1]": {"test_system": "CYP3A", "settings": "monkeys coadministered quinidine; cited from earlier work"}, "CYP3A4": {"test_system": "CYP3A4", "parameters": "method as in PMID 19752211", "settings": "coadministration of gefitinib, CYP3A4-humanized mice; cited from earlier work"}, "WT CYP2C9 [2]": {"target": "T1, WT CYP2C9 (Homo sapiens, UniProt P11712)", "settings": "for Vmax, flurbiprofen 4′-hydroxylation / CLint, flurbiprofen 4′-hydroxylation: WT; for CLint, flurbiprofen 4′-hydroxylation: Vmax/Km", "description": "(§1) Incubations were performed in phosphate buffer (100 μl; 0.1 M, pH 7.4) and contained WT or mutant CYP2C9 protein, 3 pmol/ml. […] After preincubation at 37 °C for 5 min, reactions were initiated by the addition of NADPH (1 mM final concentration) containing MgCl2 (4 mM). […] Samples were cooled on ice and then centrifuged at 5000g, 4 °C for 10 min. An aliquot (20 μl) of the supernatant fraction was injected into the HPLC column. […] The mobile phase comprised 25 mM phosphate buffer containing 0.02% triethylamine and 5% acetonitrile (phase A) and acetonitrile (phase B), delivered at a flow rate of 1 ml/min. […] Given the favorable sensitivities of these assays, rates of metabolite formation below the lower limits of quantification may be considered negligible.\n(§2) Kinetic data are presented as the mean (± SD) of four separate experiments. […] CLint, which reflects reaction efficiency, was calculated as Vmax/Km."}, "CYP2C9": {"test_system": "CYP2C9", "settings": "cited from earlier work"}, "CYP2C9 Lys206Ala mutant [3]": {"target": "T2, CYP2C9 Lys206Ala mutant (Homo sapiens, UniProt P11712, K206A)", "settings": "for Vmax, flurbiprofen 4′-hydroxylation / CLint, flurbiprofen 4′-hydroxylation: Lys206Ala; for CLint, flurbiprofen 4′-hydroxylation: Vmax/Km", "description": "(§3) Mutations were confirmed by DNA sequencing using an Applied Biosystems 3130xl Genetic Analyzer with BigDye Terminator v3.1 Chemistry (Applied Biosystems).\n(§4) WT and mutant CYP2C9 proteins and NADPH-CPR were coexpressed according to Boye et al. ([61]). Plasmids were transformed into E. coli DH5R competent cells and single isolated colonies were grown by shaking at 37 °C overnight in Luria-Bertani medium containing ampicillin (100 mg/L) and chloramphenicol (50 mg/L). Overnight cultures of each clone were diluted 1:100 in Terrific broth containing 0.2% Bacto Peptone (w/v), ampicillin (100 mg/L), and chloramphenicol (50 mg/L). Cells were grown at 37 °C in a rotary shaker until the absorbance at 600 nm reached 0.7, when δ-aminolevulinic acid and isopropyl-α-D-thiogalactopyroside were added to final concentrations of 0.5 mM and 1 mM, respectively. Cultures were then grown at 30 °C with shaking at 200 rpm for 24 h. Bacterial cells were harvested, and membrane fractions were prepared as described by Gillam et al. ([62]). The P450 content of bacterial membranes was quantified spectrophotometrically using established methods ([63], [64], [65]). CPR content was measured spectrophotometrically as the NADPH-cytochrome c reductase activity ([66]).\n(§5) Incubations were performed in phosphate buffer (100 μl; 0.1 M, pH 7.4) and contained WT or mutant CYP2C9 protein, 3 pmol/ml. […] After preincubation at 37 °C for 5 min, reactions were initiated by the addition of NADPH (1 mM final concentration) containing MgCl2 (4 mM). Following incubation at 37 °C for 30 min, reactions were terminated by the addition of 11.6 M HClO4 (1 μl). Samples were cooled on ice and then centrifuged at 5000g, 4 °C for 10 min. An aliquot (20 μl) of the supernatant fraction was injected into the HPLC column. […] The mobile phase comprised 25 mM phosphate buffer containing 0.02% triethylamine and 5% acetonitrile (phase A) and acetonitrile (phase B), delivered at a flow rate of 1 ml/min. […] Given the favorable sensitivities of these assays, rates of metabolite formation below the lower limits of quantification may be considered negligible.\nas §2"}, "CYP2C9 Lys206Ala mutant [4]": {"target": "T2, CYP2C9 Lys206Ala mutant", "assay": "in vitro", "settings": "pH 7.4, Km, flurbiprofen 4′-hydroxylation", "description": "as §3, §4, §5, §2"}, "CYP2C9 homology model": {"test_system": "CYP2C9 homology model", "settings": "homology model based on rabbit CYP2C5 crystal structure; cited from earlier work"}, "WT CYP2C9 [5]": {"target": "T1, WT CYP2C9", "assay": "in vitro", "settings": "pH 7.4, Km, flurbiprofen 4′-hydroxylation", "description": "as §1, §2"}, "CYP3A [6]": {"test_system": "CYP3A", "settings": "semisimultaneous administration of efavirenz; cited from earlier work"}, "[7]": {"test_system": "CYP2C9 Phe114 substituted with Ile and Leu", "settings": "cited from earlier work"}, "CYP2C9 Lys206Ala mutant [8]": {"target": "T2, CYP2C9 Lys206Ala mutant", "assay": "Diclofenac 4′-hydroxylation kinetics, Lys206Ala mutant", "settings": "for CLint, diclofenac 4′-hydroxylation: Vmax/Km; for Km at 7 min: human, pH 7.4, Km, diclofenac 4′-hydroxylation", "description": "as §3, §4, §5\n(§6) The mobile phase comprised 10 mM ammonium formate (pH 3) in 5% acetonitrile (mobile phase A) and acetonitrile (mobile phase B) delivered at a flow rate of 1 ml/min.\nas §2"}, "WT CYP2C9 [9]": {"target": "T1, WT CYP2C9", "assay": "Diclofenac 4′-hydroxylation kinetics, recombinant WT CYP2C9", "settings": "for CLint, diclofenac 4′-hydroxylation: Vmax/Km; for Km at 7 min: human, pH 7.4, Km, diclofenac 4′-hydroxylation", "description": "as §5, §6\nKinetic data are presented as the mean (± SD) of four separate experiments. Unless otherwise stated, metabolite formation followed sigmoidal kinetics, which was confirmed by comparison of goodness-of-fit parameters from fitting rate of metabolite formation versus substrate concentration data with the equations for empirical kinetic models (Michaelis–Menten, substrate inhibition, biphasic, and positive cooperativity) using the program GraphPad Prism version 7.01 (https://www.graphpad.com, GraphPad Software, Inc). […] CLint, which reflects reaction efficiency, was calculated as Vmax/Km."}, "[10]": {"settings": "healthy volunteers; cited from earlier work"}, "WT CYP2C9 [11]": {"target": "T1, WT CYP2C9", "settings": "dapsone 100 μM", "description": "Incubations were performed in phosphate buffer (100 μl; 0.1 M, pH 7.4) and contained WT or mutant CYP2C9 protein, 3 pmol/ml. […] After preincubation at 37 °C for 5 min, reactions were initiated by the addition of NADPH (1 mM final concentration) containing MgCl2 (4 mM). Following incubation at 37 °C for 30 min, reactions were terminated by the addition of 11.6 M HClO4 (1 μl). Samples were cooled on ice and then centrifuged at 5000g, 4 °C for 10 min. An aliquot (20 μl) of the supernatant fraction was injected into the HPLC column. […] The mobile phase comprised 25 mM phosphate buffer containing 0.02% triethylamine and 5% acetonitrile (phase A) and acetonitrile (phase B), delivered at a flow rate of 1 ml/min.\nThe mobile phase comprised 10 mM ammonium formate (pH 3) in 5% acetonitrile (mobile phase A) and acetonitrile (mobile phase B), delivered at a flow rate of 1 ml/min. The initial mobile phase composition was 80% mobile phase A and 20% mobile phase B, which was delivered for 8 min. After this time, the proportion of mobile phase B was increased to 70% over 0.1 min, and then held for 2 min before returning to the initial conditions.\nKinetic data are presented as the mean (± SD) of four separate experiments. Unless otherwise stated, metabolite formation followed sigmoidal kinetics, which was confirmed by comparison of goodness-of-fit parameters from fitting rate of metabolite formation versus substrate concentration data with the equations for empirical kinetic models (Michaelis–Menten, substrate inhibition, biphasic, and positive cooperativity) using the program GraphPad Prism version 7.01 (https://www.graphpad.com, GraphPad Software, Inc)."}, "recombinant CYP2C9": {"test_system": "recombinant CYP2C9", "settings": "cited from earlier work"}, "[12]": {"test_system": "CYP2C9 Phe114 substituted with Ile and Leu", "settings": "Phe114Ile and Phe114Leu vs WT; cited from earlier work"}, "[13]": {"settings": "Lys206Ala vs WT CYP2C9, − dapsone"}}, "note": "“And” between values parts separate entries of the source, which are not always exact repeats. Equal entries are not always repeated. “Also recorded” adds a separate entry of the source. Where two headings read alike, the source gives them in different places."}
{"smiles": "C=C[C@H]1C[N@@]2CC[C@H]1C[C@@H]2[C@@H](O)c1ccnc2ccc(OC)cc12", "note": "[quinidine]", "values": [{"measurement": "decrease in steady-state plasma concentrations of diclofenac", "setting": "CYP3A [1]", "result": "approximately 50%"}]}
{"smiles": "COc1cc2ncnc(Nc3ccc(F)c(Cl)c3)c2cc1OCCCN1CCOCC1", "note": "[gefitinib]", "values": [{"measurement": "effect on triazolam exposure", "setting": "CYP3A4", "result": "significantly reduce"}]}
{"smiles": "C[C@H](C(=O)O)c1ccc(-c2ccccc2)c(F)c1", "note": "[Flurbiprofen, S-flurbiprofen]", "values": [{"measurement": "Vmax, flurbiprofen 4′-hydroxylation", "setting": "WT CYP2C9 [2]; + dapsone 100 μM", "result": "5.30 ± 0.09", "unit": "pmol/min/pmol P450"}, {"measurement": "CLint, flurbiprofen 4′-hydroxylation", "setting": "WT CYP2C9 [2]; + dapsone 100 μM", "result": "0.946 ± 0.033", "unit": "μL/min/pmol P450"}, {"measurement": "CLint, flurbiprofen 4′-hydroxylation", "setting": "WT CYP2C9 [2]; − dapsone", "result": "0.407 ± 0.01", "unit": "μL/min/pmol P450"}, {"measurement": "Vmax, flurbiprofen 4′-hydroxylation", "setting": "WT CYP2C9 [2]; − dapsone, mean ± SD", "result": "5.05 pmol/min/pmol P450 and 5.05 ± 0.08 pmol/min/pmol P450"}, {"measurement": "shift of the 4′-proton of flurbiprofen nearer to the heme Fe in the presence of dapsone", "setting": "CYP2C9; T1 relaxation rates by NMR", "result": 0.9, "unit": "Å"}, {"measurement": "increase in binding affinity of flurbiprofen in the presence of dapsone", "setting": "CYP2C9", "result": "approximately 60%"}, {"measurement": "Km for flurbiprofen 4′-hydroxylation, higher than WT", "setting": "CYP2C9 Lys206Ala mutant [3]; [13]", "result": 30, "unit": "%"}, {"measurement": "Vmax for flurbiprofen 4′-hydroxylation, lower than WT", "setting": "CYP2C9 Lys206Ala mutant [3]; [13]", "result": 37, "unit": "%"}, {"measurement": "intrinsic clearance (CLint) of flurbiprofen 4′-hydroxylation, lower than WT", "setting": "CYP2C9 Lys206Ala mutant [3]; [13]", "result": "approximately 50%"}, {"measurement": "Vmax, flurbiprofen 4′-hydroxylation", "setting": "CYP2C9 Lys206Ala mutant [3]; + dapsone 100 μM", "result": "4.27 ± 0.11", "unit": "pmol/min/pmol P450"}, {"measurement": "CLint, flurbiprofen 4′-hydroxylation", "setting": "CYP2C9 Lys206Ala mutant [3]; + dapsone 100 μM", "result": "0.66 ± 0.03", "unit": "μL/min/pmol P450"}, {"measurement": "Vmax, flurbiprofen 4′-hydroxylation", "setting": "CYP2C9 Lys206Ala mutant [3]; − dapsone", "result": "3.21 ± 0.14", "unit": "pmol/min/pmol P450"}, {"measurement": "CLint, flurbiprofen 4′-hydroxylation", "setting": "CYP2C9 Lys206Ala mutant [3]; − dapsone", "result": "0.20 ± 0.01", "unit": "μL/min/pmol P450"}, {"measurement": "Km at 30 min", "setting": "CYP2C9 Lys206Ala mutant [4]; + dapsone 100 μM", "result": "6.6 ± 0.3", "unit": "µM"}, {"measurement": "Km at 30 min", "setting": "CYP2C9 Lys206Ala mutant [4]; − dapsone", "result": "16.2 ± 0.6", "unit": "µM"}, {"measurement": "estimate of the shift in the SOM–heme Fe distance of flurbiprofen with dapsone", "setting": "CYP2C9 homology model", "result": 0.5, "unit": "Å"}, {"measurement": "Km at 30 min", "setting": "WT CYP2C9 [5]; + dapsone 100 μM", "result": "5.6 ± 0.31", "unit": "µM"}, {"measurement": "Km at 30 min", "setting": "WT CYP2C9 [5]; − dapsone, mean ± SD, four experiments", "result": "12.4 ± 0.44", "unit": "µM"}]}
{"smiles": "O=C1Nc2ccc(Cl)cc2[C@@](C#CC2CC2)(C(F)(F)F)O1", "note": "[efavirenz]", "values": [{"measurement": "increase in apparent oral clearance of midazolam", "setting": "CYP3A [6]", "result": 70, "unit": "%"}]}
{"smiles": "O=C(O)Cc1ccccc1Nc1c(Cl)cccc1Cl", "note": "[Diclofenac, diclofenac]", "values": [{"measurement": "reduction of CLint for diclofenac 4′-hydroxylation (abolished or reduced)", "setting": "[7]", "result": "≥ 89", "unit": "%"}, {"measurement": "Vmax, diclofenac 4′-hydroxylation", "setting": "CYP2C9 Lys206Ala mutant [8]; + dapsone 100 μM", "result": "4.41 ± 0.12", "unit": "pmol/min/pmol P450"}, {"measurement": "CLint, diclofenac 4′-hydroxylation", "setting": "CYP2C9 Lys206Ala mutant [8]; + dapsone 100 μM", "result": "1.81 ± 0.07", "unit": "μL/min/pmol P450"}, {"measurement": "Km at 7 min", "setting": "CYP2C9 Lys206Ala mutant [8]; + dapsone 100 μM", "result": "2.45 ± 0.13", "unit": "µM"}, {"measurement": "Km at 7 min", "setting": "CYP2C9 Lys206Ala mutant [8]; − dapsone", "result": "4.05 ± 0.35", "unit": "µM"}, {"measurement": "Vmax, diclofenac 4′-hydroxylation", "setting": "CYP2C9 Lys206Ala mutant [8]; − dapsone", "result": "6.53 ± 0.19", "unit": "pmol/min/pmol P450"}, {"measurement": "CLint, diclofenac 4′-hydroxylation", "setting": "CYP2C9 Lys206Ala mutant [8]; − dapsone", "result": "1.64 ± 0.10", "unit": "μL/min/pmol P450"}, {"measurement": "Vmax, diclofenac 4′-hydroxylation", "setting": "WT CYP2C9 [9]; + dapsone 100 μM", "result": "3.19 ± 0.09", "unit": "pmol/min/pmol P450"}, {"measurement": "CLint, diclofenac 4′-hydroxylation", "setting": "WT CYP2C9 [9]; + dapsone 100 μM", "result": "1.99 ± 0.17", "unit": "μL/min/pmol P450"}, {"measurement": "Km at 7 min", "setting": "WT CYP2C9 [9]; + dapsone 100 μM", "result": "1.6 ± 0.15", "unit": "µM"}, {"measurement": "Km at 7 min", "setting": "WT CYP2C9 [9]; − dapsone", "result": "2.18 ± 0.16", "unit": "µM"}, {"measurement": "Vmax, diclofenac 4′-hydroxylation", "setting": "WT CYP2C9 [9]; − dapsone", "result": "5.20 ± 0.13", "unit": "pmol/min/pmol P450"}, {"measurement": "CLint, diclofenac 4′-hydroxylation", "setting": "WT CYP2C9 [9]; − dapsone", "result": "2.39 ± 0.16", "unit": "μL/min/pmol P450"}]}
{"smiles": "Nc1ccc(S(=O)(=O)c2ccc(N)cc2)cc1", "note": "[dapsone]", "values": [{"measurement": "effect of dapsone on Vmax of flurbiprofen 4′-hydroxylation", "setting": "WT CYP2C9 [2]; WT CYP2C9, dapsone 100 μM", "result": "unaffected; also recorded: without significantly affecting"}, {"measurement": "increase in catalytic efficiency (CLint) of flurbiprofen 4′-hydroxylation by dapsone", "setting": "WT CYP2C9 [2]; WT CYP2C9, dapsone 100 μM", "result": 2.3, "unit": "fold"}, {"measurement": "reduction in the Km for flurbiprofen 4′-hydroxylation by dapsone", "setting": "WT CYP2C9 [2]; WT CYP2C9, dapsone 100 μM", "result": "~60", "unit": "%"}, {"measurement": "increase in flurbiprofen exposure on coadministration of dapsone", "setting": "[10]", "result": 10, "unit": "%"}, {"measurement": "decrease in the Km for naproxen demethylation by dapsone", "setting": "WT CYP2C9 [11]", "result": 70, "unit": "%"}, {"measurement": "increase in Vmax of naproxen demethylation by dapsone", "setting": "WT CYP2C9 [11]", "result": 4.8, "unit": "fold"}, {"measurement": "increase in catalytic efficiency (CLint) of naproxen O-demethylation by dapsone", "setting": "WT CYP2C9 [11]", "result": 16.5, "unit": "fold"}, {"measurement": "increase in Vmax of flurbiprofen 4′-hydroxylation by dapsone", "setting": "recombinant CYP2C9; WT CYP2C9, earlier study", "result": "~60", "unit": "%"}, {"measurement": "dapsone concentration giving maximum activation", "setting": "recombinant CYP2C9; flurbiprofen 4′-hydroxylation, naproxen O-demethylation, piroxicam 5′-hydroxylation, confirmed here with naproxen (data not shown)", "result": 100, "unit": "µM"}]}
{"smiles": "CC(=O)C[C@@H](c1ccccc1)c1c(O)c2ccccc2oc1=O", "note": "[S-warfarin]", "values": [{"measurement": "reduction of CLint for S-warfarin 7-hydroxylation (abolished or reduced)", "setting": "[12]", "result": "≥ 89", "unit": "%"}]}
